Results on nine molecules are retold here after patent US4348404A, “Antiinflammatory 4,5-diaryl-α-polyfluoroalkyl-1H-imidazole-2-methanamines” (E. I. Du Pont de Nemours and Company, priority 1981, dated 1982).

The assay deals with adjuvant-induced arthritis in rats. Description: Established Adjuvant-Induced Arthritis in Rats. The class given is in vivo, Lewis (Wistar) male rats. Conditions: for ED50: read-out: Adjuvant Arthritis ED50; for percent paw volume reduction at the indicated dose: oral gavage once daily for 7 days.
[1] abbreviates: rat, oral gavage once daily for 7 days (days 14-20), decrease from control paw volume, uninjected left hind paw, day 21, estimated from dose-response regression lines by inspection.

Where two headings read alike, the source gives them in different places.

What is called ED50 is the dose at which the effect has come halfway, by size or by number of responders. With `COc1ccc(-c2nc(C(N)(C(F)(F)F)C(F)(F)F)[nH]c2-c2ccc(OC)cc2)cc1` [Example 1, 4,5-Bis(4-methoxyphenyl)-α,α-di(trifluoromethyl)-1H-imidazole-2-methanamine], the ED50 under setting [1] was 2 mg/kg.

Regarding `NC(c1nc(-c2ccc(F)cc2)c(-c2ccc(F)cc2)[nH]1)C(F)(F)F` (stereo not drawn) [Example 2, 4,5-Bis(4-fluorophenyl)-α-trifluoromethyl-1H-imidazole-2-methanamine], the median effective dose (ED50) under setting [1] was 19 mg/kg. In the case of `CNC(c1nc(-c2ccc(F)cc2)c(-c2ccc(F)cc2)n1C)(C(F)(F)F)C(F)(F)F` [Example 3, 4,5-Bis-(4-fluorophenyl)-N,1-dimethyl-α,α-di(trifluoromethyl)-1H-imidazole-2-methanamine], the “percent paw volume reduction at the indicated dose” value (rat, @ 25 mg/kg) is recorded as -41%. `NC(c1nc(-c2ccc(F)cc2)c(-c2ccc(F)cc2)[nH]1)(C(F)(F)F)C(F)(F)F` [Example 4, 4,5-bis(4-fluorophenyl)-α,α-di(trifluoromethyl)-1H-imidazole-2-methanamine]: the ED50 under setting [1] is 1.7 mg/kg. For `COc1ccc(-c2nc(C(N)(C(F)(F)F)C(F)(F)F)n(C)c2-c2ccc(OC)cc2)cc1` [Example 5], the “percent paw volume reduction at the indicated dose” value (rat, @ 50 mg/kg) is listed as -27%.

On to `Cn1c(C(N)(C(F)(F)F)C(F)(F)F)nc(-c2ccc(F)cc2)c1-c1ccc(F)cc1` [Example 6, 4,5-bis(4-fluorophenyl)-1-methyl-α,α-di(trifluoromethyl)-1H-imidazole-2-methanamine], for which the ED50 under setting [1] was 3.4 mg/kg. In the case of `Cc1ccc(-c2nc(C(N)(C(F)(F)F)C(F)(F)F)[nH]c2-c2ccc(C)cc2)cc1` [Example 7], the ED50 under setting [1] was 5.4 mg/kg.

As to `NC(c1nc(-c2ccc(Cl)cc2)c(-c2ccc(Cl)cc2)[nH]1)(C(F)(F)F)C(F)(F)F` [Example 8], the ED50 (Rattus norvegicus, po) turned out to be 7 mg/kg. With `NC(c1nc(-c2ccccc2)c(-c2ccccc2)[nH]1)(C(F)(F)F)C(F)(F)F` [Example 9], the ED50 under setting [1] is 8 mg/kg.
